Assay [1] concerns Stage 1V Metastatic melanoma. The assay is described as follows: Phase I/II study, elesclomol in combination with paclitaxel. Conditions: i.v. weekly for three weeks of 28 day cycle. The class given is in vivo, human. How it is done:
For example, a Phase I/II study was performed to test elesclomol in combination with paclitaxel in patients with Stage 1V Metastatic melanoma. Subjects were dosed intravenously with 80 mg/m^2 of paclitaxel either with or without 213 mg/m^2 of elesclomol once per week for the first three weeks, followed by one week off (i.e., a 28 day cycle with dosing on days 1, 8, and 14) with the 28 day dosing cycle repeated until tumor progression, likely resulting in complete clearance of elesclomol between doses.

Assay [2] relates to Stave IV Metastatic melanoma. As to the kind of experiment: Phase III study, elesclomol in combination with paclitaxel versus paclitaxel alone. It is filed as in vivo, human. Conditions: for Median (months) Overall Survival / Median (months) PFS: Phase III; for Median Progression Free Survival: Phase III metastatic melanoma, chemotherapy-naive. The method, then:
Further, a Phase III study was performed to test elesclomol in combination with paclitaxel versus paclitaxel alone in chemotherapy-naïve subjects with Stave IV Metastatic melanoma. Subjects with metastatic melanoma were randomized with a ratio of 1:1 to either the treatment arm (elesclomol 213 mg/m^2 in combination with paclitaxel 80 mg/m^2) or the control arm (paclitaxel 80 mg/m^2 alone) once per week for the first three weeks, followed by one week off (i.e., a 28 day cycle with dosing on days 1, 8, and 14) with the 28 day dosing cycle repeated until tumor progression, likely resulting in complete clearance of elesclomol between doses. The population enrolled into the study was to have baseline LDH levels limited to 2 times upper limit of normal (ULN) values.

Regarding `CC(=O)O[C@H]1C(=O)[C@@]2(C)[C@H]([C@H](OC(=O)c3ccccc3)[C@]3(O)C[C@H](OC(=O)[C@H](O)[C@@H](NC(=O)c4ccccc4)c4ccccc4)C(C)=C1C3(C)C)[C@]1(OC(C)=O)CO[C@@H]1C[C@@H]2O` [P alone, paclitaxel], the “Median Progression Free Survival” value in assay [1] (High LDH) is 1.6 (95% CI: 1.0-3.0) months; in assay [1] (High LDH, listed as paclitaxel), 1.6 months; in assay [1] (Low LDH), 3.5 (95% CI: 1.6-7.3) months; in assay [1] (Low LDH, listed as paclitaxel), 3.5 months; in assay [2] (High LDH) it was 1.9 (95% CI: 1.8-2.6) months; in assay [2] (Low LDH), 2.1 (95% CI: 1.9-3.6) months. In addition, the “Median (months) Overall Survival” value was 8.1 months in assay [2] (High LDH (>1 × ULN)); 11.7 months in assay [2] (ITT Population); “Not Ach” in assay [2] (Low LDH (≦0.8 × ULN), listed as Paclitaxel alone); “not achieved” in assay [2] (Low LDH (≦0.8 × ULN), listed as paclitaxel alone); 14.5 months in assay [2] (Normal LDH (≦1 × ULN)). For the same compound, the “Median (months) PFS” value in assay [2] (High LDH (>1 × ULN)) was found to be 1.9 months; in assay [2] (ITT Population) it was 1.9 months; in assay [2] (Low LDH (≦0.8 × ULN)) it was 2.1 months; in assay [2] (Normal LDH (≦1 × ULN)) it was 2.1 months.

Source of the values: patent US20120128580A1, “PRESELECTION OF SUBJECTS FOR THERAPEUTIC TREATMENT WITH ELESCLOMOL BASED ON HYPOXIC STATUS” (SYNTA PHARMACEUTICALS CORP., priority 2010, published 2012).
